The results in this text go back to article PMC8899516, “Structure-Activity Relationship Studies of 4-((4-(2-fluorophenyl)piperazin-1-yl)methyl)-6-imino-N-(naphthalen-2-yl)-1,3,5-triazin-2-amine (FPMINT) Analogues as Inhibitors of Human Equilibrative Nucleoside Transporters” (Frontiers in Pharmacology, 2022).

This test deals with ENT1. The experiment in a line: Western blotting of ENT1 protein expression. The class given is cell-based, human. Particulars: 50 µM, 24 h or 48 h. The procedure:
PK15NTD/ENT1 and PK15NTD/ENT2 cells were grown to confluence in 10-cm culture dishes and treated with 50 µM of compound 3c or an equivalent volume of a vehicle (0.5% DMSO) for 24 h or 48 h. The cells were washed thrice with ice-cold PBS. Total protein was extracted by cell lysis in a lysis buffer (5 mM sodium monophosphate, pH 8) with a protease inhibitor cocktail (Sigma, St Louis, MO, United States; 1:1,000 [v/v]). The protein content was measured by bicinchoninic acid assay. Protein samples were separated by 12.5% sodium dodecyl sulfate–polyacrylamide gel electrophoresis (SDS-PAGE) and blotted onto polyvinylidene difluoride (PVDF) membranes. […] The membranes were then again washed, and the bound secondary antibodies were detected using an enhanced chemiluminescence kit (Bio-Rad, Hercules, CA, United States). […] To semi-quantify the ENT1 and ENT2 protein levels, the same membranes were washed three times with a stripping buffer for 10 min at room temperature, and the protein expression level of β-actin was measured using monoclonal mouse anti-β-actin primary antibodies (1:3,000 [v/v] dilution in a blocking solution). […]
FIGURE 5 Effects of compound 3c on cytotoxicity and protein expressions of ENT1 and ENT2. […] Total ENT1 and ENT2 from whole-cell lysates were also detected for a comparison. β-actin served as an internal reference. […]
(A western blot detects proteins with antibodies after separation by electrophoresis.)

For the compound `Cc1cccc(Nc2nc(N)nc(CN3CCN(c4ccc(F)cc4)CC3)n2)c1` [Compound 3c], the “protein expression level of ENT1” value is listed as “unaltered”.
